# From PubChem BioAssay (NCI)
#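 48-hour exposure; five concentrations; linearly interpolated endpoints. At the GI50, growth is halved. At the TGI there is no net growth.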
# Columns and labels:
# Assay in all cases: DTP human tumour cell line panel, 48 h
# SK-OV-3 ovarian = system: SK-OV-3 ovarian
# MDA-MB-435 = system: MDA-MB-435
# OVCAR-3 ovarian = system: OVCAR-3 ovarian
# NCI-H460 lung = system: NCI-H460 lung
# MDA-MB-231 breast = system: MDA-MB-231 breast
# SK-MEL-5 melanoma = system: SK-MEL-5 melanoma
# NCI-H23 lung = system: NCI-H23 lung
# DU-145 prostate = system: DU-145 prostate
# OVCAR-8 ovarian = system: OVCAR-8 ovarian
# OVCAR-5 ovarian = system: OVCAR-5 ovarian
# MCF7 breast = system: MCF7 breast
# LOX IMVI melanoma = system: LOX IMVI melanoma
# SF-268 CNS = system: SF-268 CNS
# UACC-257 melanoma = system: UACC-257 melanoma
# HOP-62 NSCLC = system: HOP-62 NSCLC
# T-47D breast = system: T-47D breast
# KM12 colon = system: KM12 colon
# SN12C renal = system: SN12C renal
# SR leukemia = system: SR leukemia
# PC-3 prostate = system: PC-3 prostate
# HS 578T breast = system: HS 578T breast
# MALME-3M melanoma = system: MALME-3M melanoma
# HOP-92 NSCLC = system: HOP-92 NSCLC
# A549 NSCLC = system: A549 NSCLC
# SW-620 colon = system: SW-620 colon
# ACHN renal = system: ACHN renal
# NCI-H522 lung = system: NCI-H522 lung
# NCI-H226 lung = system: NCI-H226 lung
# M14 melanoma = system: M14 melanoma
smiles,measurement,setting,value
COc1ccc(-c2ccnc(SCc3cc4cc(Cl)ccc4[nH]c3=O)n2)cc1,GI50,SK-OV-3 ovarian,4.97 µM
same,TGI,SK-OV-3 ovarian,21.2 µM
same,GI50,MDA-MB-435,14.4 µM
same,TGI,MDA-MB-435,> 100 µM
same,GI50,OVCAR-3 ovarian,9.93 µM
same,TGI,OVCAR-3 ovarian,27.2 µM
same,GI50,NCI-H460 lung,5.63 µM
same,TGI,NCI-H460 lung,58.7 µM
same,GI50,MDA-MB-231 breast,9.03 µM
same,TGI,MDA-MB-231 breast,32.2 µM
same,GI50,SK-MEL-5 melanoma,14.2 µM
same,TGI,SK-MEL-5 melanoma,71.6 µM
same,GI50,NCI-H23 lung,13.7 µM
same,TGI,NCI-H23 lung,45.1 µM
same,GI50,DU-145 prostate,10.2 µM
same,TGI,DU-145 prostate,24.2 µM
same,GI50,OVCAR-8 ovarian,4.9 µM
same,TGI,OVCAR-8 ovarian,> 100 µM
same,GI50,OVCAR-5 ovarian,21 µM
same,TGI,OVCAR-5 ovarian,85.8 µM
same,GI50,MCF7 breast,8.74 µM
same,TGI,MCF7 breast,58.1 µM
same,GI50,LOX IMVI melanoma,15 µM
same,TGI,LOX IMVI melanoma,> 100 µM
same,GI50,SF-268 CNS,3.41 µM
same,TGI,SF-268 CNS,20.4 µM
same,GI50,UACC-257 melanoma,16.4 µM
same,TGI,UACC-257 melanoma,82 µM
same,GI50,HOP-62 NSCLC,3.45 µM
same,TGI,HOP-62 NSCLC,16.6 µM
same,GI50,T-47D breast,19.7 µM
same,TGI,T-47D breast,> 100 µM
same,GI50,KM12 colon,19.9 µM
same,TGI,KM12 colon,> 100 µM
same,GI50,SN12C renal,11.6 µM
same,TGI,SN12C renal,> 100 µM
same,GI50,SR leukemia,21.6 µM
same,TGI,SR leukemia,> 100 µM
same,GI50,PC-3 prostate,6.9 µM
same,TGI,PC-3 prostate,45.7 µM
same,GI50,HS 578T breast,2770 nM
same,TGI,HS 578T breast,9.75 µM
same,GI50,MALME-3M melanoma,4.72 µM
same,TGI,MALME-3M melanoma,27.4 µM
same,GI50,HOP-92 NSCLC,5.49 µM
same,TGI,HOP-92 NSCLC,39.8 µM
same,GI50,A549 NSCLC,15.6 µM
same,TGI,A549 NSCLC,> 100 µM
same,GI50,SW-620 colon,26.2 µM
same,TGI,SW-620 colon,> 100 µM
same,GI50,ACHN renal,5.64 µM
same,TGI,ACHN renal,19.8 µM
same,GI50,NCI-H522 lung,5.18 µM
same,TGI,NCI-H522 lung,32.4 µM
same,GI50,NCI-H226 lung,2960 nM
same,TGI,NCI-H226 lung,10.4 µM
same,GI50,M14 melanoma,25 µM
same,TGI,M14 melanoma,> 100 µM
